Tested on: J774 macrophages
Assay: Cholesterol efflux in vivo (macrophage cholesterol export)
Conditions: mice injected with [3H]-cholesterol-loaded J774 cells; 20 μg, tail vein; versus PBS vehicle; FIG. 1
Method: FIG. 1 is a line graph comparing in vivo macrophage cholesterol export in mice treated with a liposomal formulation of the ACAT inhibitor, Sandoz 58-035, at an estimated dose of 20 μg (open circles), mice treated with 20 μg of free non-liposome formulated Sandoz 58-035 (closed circles), and mice administered phosphate buffered saline (closed triangles).
For non-liposome formulated Sandoz 58-035 experiments, 10 ul of the stock solution (2 mg/ml) was diluted with 190 ul of phosphate buffered saline (PBS) to give a final Sandoz 58-035 solution of 20 μg/200 μl. Two hundred microliters of this solution containing 20 μg of Sandoz 58-035 was injected into each mouse through the tail vein.
Sandoz 58-035 was liposome formulated using a modified method of Jonas and co-workers (Jonas et al. J. Bio. Chem. 1989 264:4818-4825). […]
To determine cholesterol export in vivo, J774 cells were loaded with cholesterol and simultaneously incubated for 3 hours with 0.5 μCi/mL [^3H]-cholesterol, followed by an overnight equilibration period as described by Tam et al. (J. Lipid Res. 2002 43:1410-1420). […] Cholesterol efflux was determined by measuring the appearance of [^3H]-cholesterol in plasma by scintillation spectrometry. […]

## CCCCCCCCCC[Si](C)(C)CCC(=O)NC(Cc1ccc(C)cc1)c1ccccc1 (stereo not shown) [Sandoz 58-035]
  in vivo macrophage cholesterol export (result in words): did not increase macrophage cholesterol export over the vehicle
